The term logP denotes the decadic logarithm of the partition coefficient of the neutral form, usually between octanol and water.

The series can be described thus: log P by HPLC on reversed-phase column (EEC Directive 79/831 Annex V.A8). The series is classed as physicochemical. As for the experimental part: In table 1, the log P values were determined in accordance with EEC Directive 79/831 Annex V.A8 by HPLC (High Performance Liquid Chromatography) on a reversed-phase column (C18), using the method described below: Temperature: 40° C.; […]

Like-named read-outs stand apart in the source and are kept apart here.

`CN(CCN(C)C(=O)c1c(C(F)F)nn(C)c1F)C(=O)c1ccccc1` [Example 230]: the log partition coefficient (logP) worked out at 1.66.
Turning to `Cn1nc(C(F)F)c(C(=O)NCC#Cc2ccco2)c1F` [Example 280], the logP was determined as 2.14.
As for `CC(CC1CCCCC1)N(C(=O)c1c(C(F)F)nn(C)c1Cl)C1CC1` (stereo not drawn) [Example 371], the log partition coefficient (logP) was found to be 4.56.
The molecule `CN(CC=Cc1ccccc1)C(=O)c1c(C(F)F)nn(C)c1F` [Example 262] registered a logP of 2.73.
Still for that read-out and setting: under `CC(CSCc1ccco1)N(C)C(=O)c1c(C(F)F)nn(C)c1Cl` (stereo not drawn) [Example 239] stands 2.64; under `CC(C)N(CCOc1ccc(Cl)cc1)C(=O)c1c(C(F)F)nn(C)c1Cl` [Example 53], 3.78; under `CC(C)N(CCOc1c(Cl)cc(Cl)cc1Cl)C(=O)c1c(C(F)F)nn(C)c1F` [Example 203], 4.51.
On the same count and under the same terms, then `CN(CCCc1ccco1)C(=O)c1c(C(F)F)nn(C)c1F` [Example 101], with 2.25.
Same read-out and setting: under `CN(CC(NC(=O)c1c(C(F)F)nn(C)c1Cl)C1CC1)c1ccccc1` (stereo not drawn) [Example 18] stands 3.31; under `COCCN(CC=Cc1ccccc1)C(=O)c1c(C(F)F)nn(C)c1Cl` [Example 265], 3.02; under `Cn1nc(C(F)F)c(C(=O)NC(C)(C)CCc2ccc(Cl)c(Cl)c2)c1Cl` [Example 133], 4.44.
Molecule `Cn1nc(C(F)F)c(C(=O)NCCOc2cccc(Oc3ccccc3)c2)c1Cl` [Example 75] registered a log partition coefficient (logP) of 3.60.
`Cn1nc(C(F)F)c(C(=O)NC2(C(=O)Nc3ccccc3)CCCC2)c1F` [Example 3] came in with a logP of 2.46.
As to `CC#CC1(NC(=O)c2c(C(F)F)nn(C)c2F)CCCCC1` [Example 382], the logP was 2.90.
Still for that read-out and setting: under `Cn1nc(C(F)F)c(C(=O)NCCOc2c(F)cccc2F)c1Cl` [Example 160] stands 2.64; under `CCCN(CCOc1ccccc1)C(=O)c1c(C(F)F)nn(C)c1F` [Example 8], 3.06.
`Cn1nc(C(F)F)c(C(=O)NC(CCc2ccc(Cl)cc2)C(C)(C)C)c1F` (stereo not drawn) [Example 60] had a lipophilicity (logP) of 4.24.
`Cn1nc(C(F)F)c(C(=O)N(CC#Cc2cc3ccccc3s2)C2CC2)c1F` [Example 276] showed a lipophilicity (logP) of 3.85.
For `C=CCC1CCCCC1N(C(=O)c1c(C(F)F)nn(C)c1F)C1CC1` (stereo not drawn) [Example 346], the lipophilicity (logP) worked out at 3.94.
As to `CC(CCc1ccc(Cl)cc1Cl)NC(=O)c1c(C(F)F)nn(C)c1F` (stereo not drawn) [Example 186], the logP is 3.79. The logP values of the last two molecules are within 0.2 log units of each other.
Turning to `CCN(C(=O)c1c(C(F)F)nn(C)c1Cl)C(C)COc1ccc(C)cc1` (stereo not drawn) [Example 39], the logP is recorded as 3.48.
As to `CCCN(CCOc1c(Cl)cc(Cl)cc1Cl)C(=O)c1c(C(F)F)nn(C)c1Cl` [Example 205], the logP stood at 4.56.
Molecule `Cn1nc(C(F)F)c(C(=O)N(CC#Cc2cccs2)C2CC2)c1F` [Example 282] came in with a logP of 3.00.
Still for that read-out and setting: under `Cn1nc(C(F)F)c(C(=O)NCC(=O)Nc2c(Cl)cc(Cl)cc2Cl)c1Cl` [Example 198] stands 2.56; under `CC(CSCc1ccco1)N(C(=O)c1c(C(F)F)nn(C)c1Cl)C1CC1` (stereo not drawn) [Example 237], 3.27.
`Cn1nc(C(F)F)c(C(=O)NC(CCc2ccc(Cl)cc2)C(C)(C)C)c1Cl` (stereo not drawn) [Example 61] displayed a log partition coefficient (logP) of 4.41.
`CC(C)CC(C)C1CCCCC1NC(=S)c1c(C(F)F)nn(C)c1Cl` (stereo not drawn) [Example 336] gave a logP of 5.42.
The same measure, in the same setting: then `CCC(CCc1sccc1Br)NC(=O)c1c(C(F)F)nn(C)c1Cl` (stereo not drawn) [Example 90], with 3.63.
On the same count and under the same terms, under `Cn1nc(C(F)F)c(C(=O)N(C2CC2)C2CCCC2C2CCCC2)c1Cl` (stereo not drawn) [Example 369] stands 4.83.
Same read-out and setting: then `CN(C(=O)c1c(C(F)F)nn(C)c1F)C1CCCCC1Cc1ccccc1` (stereo not drawn) [Example 253], with 3.72; and `CC1CC(N(C(=S)c2c(C(F)F)nn(C)c2F)C2CC2)CC(C)(C)C1` (stereo not drawn) [Example 323], with 4.96.
With `CCC1(C)CC(NC(=O)c2c(C(F)F)nn(C)c2F)CC(C)(C)C1` (stereo not drawn) [Example 363], the logP was found to be 4.23.
On the same count and under the same terms, under `CC(CCc1ncc(C(F)(F)F)cc1Cl)N(C)C(=O)c1c(C(F)F)nn(C)c1Cl` (stereo not drawn) [Example 88] stands 3.45; under `CC(CCc1cccs1)N(C(=O)c1c(C(F)F)nn(C)c1Cl)C1CC1` (stereo not drawn) [Example 103], 3.57; under `CC(C)N(CCOc1ccc(Cl)cc1)C(=O)c1c(C(F)F)nn(C)c1F` [Example 56], 3.62.
As for `Cn1nc(C(F)F)c(C(=O)N(CCOc2c(Cl)cc(Cl)cc2Cl)C2COC2)c1Cl` [Example 207], the logP is recorded as 3.55. This logP and that of the molecule before are within 0.2 log units of each other.
On the same count and under the same terms, then `Cn1nc(C(F)F)c(C(=O)N(CCCc2cc3ccccc3o2)C2CC2)c1F` [Example 91], with 3.52; and `CC(COc1ccccc1)N(C)C(=O)c1c(C(F)F)nn(C)c1Cl` (stereo not drawn) [Example 15], with 2.78.
Still for that read-out and setting: under `CC(C)N(CC(=O)Nc1ccccc1)C(=O)c1c(C(F)F)nn(C)c1Cl` [Example 2] stands 2.43.
In turn, `CN(CCN(C)C(=O)c1c(C(F)F)nn(C)c1Cl)C(=O)c1ccccc1` [Example 231] came in with a lipophilicity (logP) of 1.76.
Molecule `Cn1nc(C(F)F)c(C(=O)NCCCc2ccco2)c1F` [Example 100] showed a logP of 2.17.
In turn, `Cn1nc(C(F)F)c(C(=O)N(CCOc2c(Cl)cc(Cl)cc2Cl)C2CCCC2)c1F` [Example 209] gave a lipophilicity (logP) of 5.08.
Under “HPLC on reversed-phase column (C18), 40° C., 0.1% aqueous formic acid and acetonitrile, linear gradient 10% to 90% acetonitrile”, `CC1CCCC(Cc2cccc(Cl)c2)C1NC(=O)c1c(C(F)F)nn(C)c1Cl` (stereo not drawn) [Example 80] had a logP of 4.51.
`CCCN(CCOc1ccc(C(=O)OCC)cc1)C(=O)c1c(C(F)F)nn(C)c1F` [Example 73]: the lipophilicity (logP) was 3.31.
For `CN(C(=O)c1c(C(F)F)nn(C)c1Cl)C1CCCCC1Cc1ccccc1` (stereo not drawn) [Example 254], the logP came out at 3.87.
Still for that read-out and setting: then `Cn1nc(C(F)F)c(C(=O)N(CC#Cc2ccccc2)C2CCCC2)c1F` [Example 273], with 3.73; and `Cn1nc(C(F)F)c(C(=O)NC2(C(F)(F)F)CCCCC2)c1Cl` [Example 386], with 3.15; and `Cn1nc(C(F)F)c(C(=O)NCCCc2cc3ccccc3s2)c1F` [Example 95], with 3.17.
On the same count and under the same terms, under `Cn1nc(C(F)F)c(C(=O)NCCOc2ccc(Cl)cc2)c1Cl` [Example 49] stands 2.96; under `COCCN(CC=Cc1ccccc1)C(=O)c1c(C(F)F)nn(C)c1F` [Example 266], 2.86; under `CC(CSCc1ccco1)N(C(=O)c1c(C(F)F)nn(C)c1F)C1CC1` (stereo not drawn) [Example 236], 3.11.
In turn, `CC(CSCc1ccco1)N(C)C(=O)c1c(C(F)F)nn(C)c1F` (stereo not drawn) [Example 238] registered a logP of 2.49.
On the same count and under the same terms, under `CCCN(CCCOc1c(C)cc(C)cc1C)C(=O)c1c(C(F)F)nn(C)c1F` [Example 235] stands 4.27; under `Cn1nc(C(F)F)c(C(=O)NCCS(=O)(=O)c2ccc(Cl)cc2)c1Cl` [Example 59], 2.30; under `CN(CC#Cc1ccco1)C(=O)c1c(C(F)F)nn(C)c1F` [Example 281], 2.32.
The same measure, in the same setting: under `Cn1nc(C(F)F)c(C(=O)N(CCCc2ccco2)C2CC2)c1F` [Example 99] stands 2.75.
Still for that read-out and setting: under `CCCN(C(=O)c1c(C(F)F)nn(C)c1Cl)C(C)COc1ccccc1-c1ccccc1` (stereo not drawn) [Example 31] stands 4.51; under `Cn1nc(C(F)F)c(C(=O)NCCCc2cc3ccccc3o2)c1F` [Example 92], 2.90.
Regarding `CCC(COc1cccc2ccccc12)NC(=O)c1c(C(F)F)nn(C)c1Cl` (stereo not drawn) [Example 223], the logP came to 3.85.
With `Cn1nc(C(F)F)c(C(=O)N(CCCc2cccs2)C2CC2)c1F` [Example 102], the lipophilicity (logP) is given as 3.04.
Regarding `Cn1nc(C(F)F)c(C(=O)NC(COc2ccccc2)C2CC2)c1Cl` (stereo not drawn) [Example 20], the lipophilicity (logP) worked out at 3.25.
Turning to `CN(CC(=O)OCc1ccccc1)C(=O)c1c(C(F)F)nn(C)c1F` [Example 226], the logP came out at 2.44.
For the molecule `Cn1nc(C(F)F)c(C(=O)NC(C)(C)C(=O)Nc2ccccc2)c1F` [Example 24], the log partition coefficient (logP) came out at 2.10.
In turn, `Cc1ccc(SCC(C2CC2)N(C)C(=O)c2c(C(F)F)nn(C)c2Cl)cc1` (stereo not drawn) [Example 41] returned a log partition coefficient (logP) of 3.85.
The same measure, in the same setting: then `Cn1nc(C(F)F)c(C(=O)N(CCCC2CCCO2)C2CC2)c1F` (stereo not drawn) [Example 114], with 2.21; and `Cn1nc(C(F)F)c(C(=O)N(CCOc2ccc(Cl)cc2)C2CCC2)c1F` [Example 50], with 3.78.
Molecule `Cn1nc(C(F)F)c(C(=O)NCCCC2Cc3ccccc3O2)c1F` (stereo not drawn) [Example 97] gave a logP of 2.69.
On the same count and under the same terms, under `CN(C(=O)c1c(C(F)F)nn(C)c1Cl)C(COc1ccc2ccccc2c1)C1CC1` (racemic) [Example 140] stands 3.96.
`CN(CCC(=O)Nc1ccc(Cl)c(Cl)c1)C(=O)c1c(C(F)F)nn(C)c1F` [Example 232]: the log partition coefficient (logP) stood at 2.71.
As for `CC(CC[Si](C)(C)C)N(C(=O)c1c(C(F)F)nn(C)c1F)C1CC1` (stereo not drawn) [Example 304], the log partition coefficient (logP) was found to be 4.39.
Take `CCCCCCC1CCCCC1NC(=S)c1c(C(F)F)nn(C)c1F` (stereo not drawn) [Example 327]: the logP amounted to 5.81.
As to `Cn1nc(C(F)F)c(C(=O)NC2CCCC2Sc2ncccn2)c1Cl` (stereo not drawn) [Example 257], the logP stood at 2.26.
Same read-out and setting: under `CC#CC1(NC(=O)c2c(C(F)F)nn(C)c2Cl)CCCCC1` [Example 383] stands 3.11.
Same read-out and setting: under `Cn1nc(C(F)F)c(C(=O)N(CCOc2c(Cl)cc(Cl)cc2Cl)C2CCCC2)c1Cl` [Example 206] stands 5.27; under `Cc1ccsc1C#CCN(C(=O)c1c(C(F)F)nn(C)c1F)C1CC1` [Example 283], 3.31.
The same measure, in the same setting: then `Cn1nc(C(F)F)c(C(=O)NC2CCCCC2C(C)(C)C)c1Cl` (stereo not drawn) [Example 348], with 4.15.
Molecule `Cn1nc(C(F)F)c(C(=O)NCC(=O)Nc2c(Cl)cc(Cl)cc2Cl)c1F` [Example 197] came in with a logP of 2.39.
Still for that read-out and setting: under `CCCN(CCOc1ccccc1)C(=O)c1c(C(F)F)nn(C)c1Cl` [Example 7] stands 3.21.

The values above are taken from US8999956B2, “N-[(het)arylalkyl)] pyrazole(thio)carboxamides and their heterosubstituted analogues” (Bayer Intellectual Property GmbH, priority 2010, dated 2015).
